Reference: patent US20190133997A1, “ARTEMISININ ANALOG, AND USE, METHOD, AND COMPOSITION FOR PROMOTING LIPID CATABOLISM AND IMPROVING SUGAR METABOLISM” (FUDAN UNIVERSITY, priority 2016, published 2019)

Tested on: BMP4-directed C3H10T1/2
Assay: Artemisinin and analogues on BMP4-directed C3H10T1/2 (morphology, Western blot)
Assay type: cell-based
Conditions: for cell morphology of C3H10T1/2: concentration shown in FIG. 8, from Day 0 of differentiation, vs control
Method: 4.3.1 Culture and Differentiation of C3H10T1/2 According to Method 2.4.1.
Artemisinin, artesunate and dihydroartemisinin were stored in DMSO at a storage concentration of 10 mMol/L. The concentration shown in FIG. 8 was added on Day 0 of differentiation. Fresh medium was replaced every two days, and the corresponding concentrations of compounds were added until the cells differentiated to mature.
The method for extracting C3H10T1/2 cell total protein was the same as 2.4.3;
Western blot method and catalog number of antibody was the same as 2.4.4.

Row | SMILES | cell morphology of C3H10T1/2 | expression of brown fat-related genes (C3H10T1/2) | expression level of UCP1 (dihydroartemisinin 1, 2.5, 5, 7.5 Mol/L, Western blot) | expression level of PGC1α (dihydroartemisinin, Western blot)
1 | C[C@@H]1CC[C@H]2[C@@H](C)C(=O)O[C@@H]3O[C@@]4(C)CC[C@@H]1[C@]32OO4 [artemisinin] | exhibited similar morphological characteristics |  |  | 
2 | C[C@H]1[C@H](OC(=O)CCC(=O)O)O[C@@H]2O[C@@]3(C)CC[C@H]4[C@H](C)CC[C@@H]1[C@@]24OO3 [artesunate] | exhibited similar morphological characteristics |  |  | 
3 | C[C@H]1[C@@H](O)O[C@@H]2O[C@@]3(C)CC[C@H]4[C@H](C)CC[C@@H]1[C@@]24OO3 [dihydroartemisinin] | exhibited similar morphological characteristics | up-regulated | gradually increase with the increase of the concentration of dihydroartemisinin | gradually increase with the increase of the concentration of dihydroartemisinin
